US20200339544A1 (JOINT STOCK COMPANY "BIOCAD", priority 2017, published 2020)
Structures can show the parent of a compound that is named as a salt. Where two headings read alike, the source gives them in different places.

What was measured:
[1] = tested on: H1975 (lung adenocarcinoma, DM, L828R/T790M); experiment: Antiproliferative activity on H1975 cells (Alamar Blue); type: cell-based; details: for IC50: Homo sapiens, NCI-H1975, H1975 cells; for SI IC50(A549)/IC50(DM): selectivity index, A549 vs H1975 cells
Summary of the method: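 H1975 cells (15*10^3/well) attached 16-18 h in RPMI-1640 with 2% FBS, then exposed to compounds (≤1% DMSO final) for 72 h at 37 °C. Viability by Alamar Blue fluorescence (Ex 540/Em 590 nm) after 3-5 h; IC50 from four-parameter logistic fit.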

[2] = Chemical stability in simulated intestinal fluid (SIF); type: physicochemical; details: SIF without enzymes, pH 6.5; 10 μm; 2 hours at 37° C.; substance amount remaining
Summary of the method: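 Compound at 10 μm (diluted from 10 mM DMSO stock) incubated 2 h at 37° C in enzyme-free SGF, pH=1,4, or enzyme-free SIF, pH=6.5. HPLC peak areas before and after incubation give % compound remaining.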

[3] = Chemical stability in human blood plasma; type: in vitro ADME; details: pooled human blood plasma; 10 μm; 4 hours at 37° C.; substance amount remaining
Summary of the method: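 Pooled plasma from ten healthy donors was spiked to 10 μM from a 10 mM DMSO stock and held 4 h at 37 °C. After acetonitrile protein precipitation, HPLC peak areas before and after incubation gave the percentage of compound remaining.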

[4] = Permeability through monolayer of Caco-2 cells; type: in vitro ADME; details: human, Caco-2 monolayer; for Papp A→B at 2 h, 10 µM: pH 6.5 upper / pH 7.4 lower, 2 h at 37° C.; for efflux ratio at 2 h, 10 µM: Papp B-A/Papp A-B
Source text: 2) Assessment of permeability through monolayer of Caco-2 cells.
Assessment of permeability through the monolayer of Caco-2 cells allows to evaluate the ability of the candidate compounds to penetrate through biological membranes by active and passive transport.
Caco-2, the cells of the intestinal epithelium, had been cultured in transwell plate inserts with the filters (with pores of 0.4 μm, BD Falcon with High Density) for 21 days, and then the integrity of the monolayer were estimated with Lucifer Yellow (Sigma-Aldrich, USA) by standard protocol. When setting the A→B transfer (“intestinal lumen”—“blood stream” transfer), solutions of test substances were added in a buffer with pH 6.5 (HBSS, 10 mM HEPES, 15 mM glucose solution) with the concentration of 10 μM into the upper chamber; the lower chamber was filled with a buffer with pH 7.4 (HBSS, 10 mM HEPES, 15 mM Glucose, 1% BSA). When setting B→A transfer (“blood stream”—“intestinal lumen” transfer), the upper chamber was filled with the buffer with pH 6.5, and solutions of the test substances were added in the buffer with pH 7.4 at the concentration of 10 μM in the lower chamber. Propranolol was used as a control substance (as it has high permeability).
After incubating for 2 h at 37° C. under 5% CO2, the amounts of test substances were determined in the upper and lower chambers by HPLC using Agilent1200 chromatograph (Agilent, USA) with preliminary protein precipitation with acetonitrile. We used gradient elution (1 mL/min flow rate). We determined the areas of peaks corresponding to the compounds. On the basis of peak areas in the calibration standards we determined the concentration of compound in the initial solution and in the samples from the wells of the upper and lower chambers. Papp, permeability through the cell layer, was calculated using the following formula:
Papp=(C(t)*V)/(C(0)*t*Area), wherein
The value was calculated with the following formula:
efflux=Papp B-A/Papp A-B, wherein • Papp A-B—the volume of permeability in A→B test; • Papp B-A—he volume of permeability in B→A test.

[5] = average values obtained in several tests, Table 16, read-out: H1975 (DM) IC50
[6] = antiproliferative test, Table 15, read-out: IC50 H1975 (DM)

Row | IC50 [1, 5] [µM] | IC50 [1, 6] [µM] | Stability in SIF, % [2] [%] | Stability in blood plasma, % [3] [%] | Papp A→B at 2 h, 10 µM [4] [×10⁻⁶ cm/s] | efflux ratio at 2 h, 10 µM [4] | Structure (SMILES) | SI IC50(A549)/IC50(DM) [1]
1 | 0.138 | 0.138 | 98.4 | 100.0 |  |  | C=CC(=O)Nc1cc(Nc2cc(C(=O)c3ccc(-c4cnn(C)c4)cc3)ccn2)c(OC)cc1N(C)CCN(C)C [EGFR_3365_85, N-(2-((2-(dimethylamino)ethyl)(methyl)amino)-4-methoxy-5-((4-(4-(1-methyl-1H-pyrazol-4-yl)benzoyl)pyridin-2-yl)amino)phenyl) acrylamide] | 10
2 | 0.0537 | 0.0537 | 100.0 | 83.5 |  |  | C=CC(=O)Nc1cc(Nc2nccc(C(=O)c3ccc(OCc4ccccc4)cc3)n2)c(OC)cc1N(C)CCN(C)C [EGFR_3365_16, N-(5-((4-(4-(benzyloxy)benzoyl)pyrimidin-2-yl)amino)-2-((2-(dimethylamino)ethyl)(methyl)amino)-4-methoxyphenyl)acrylamide] | 41.10
3 | 0.0449 | 0.0449 | 98.8 | 91.8 |  |  | C=CC(=O)Nc1cc(Nc2cc(C(=O)c3ccc(N4CC(OC)C4)cc3)ccn2)c(OC)cc1N(C)CCN(C)C (racemic) [EGFR_3365_53, N-(2-((2-(dimethylamino)ethyl)(methyl)amino)-4-methoxy-5-((4-(4-(3-methoxyazetidin-1-yl)benzoyl)pyridin-2-yl)amino)phenyl)acrylamide] | 183
4 | 0.211 | 0.211 | 97.2 | 84.8 |  |  | C=CC(=O)Nc1cc(Nc2cc(C(=O)c3ccc(N4CCN(C)CC4)cc3)ccn2)c(OC)cc1N(C)CCN(C)C [EGFR_3365_55, N-(2-((2-(dimethylamino)ethyl)(methyl)amino)-4-methoxy-5-((4-(4-(4-methylpiperazin-1-yl)benzoyl)pyridin-2-yl)amino)phenyl)acrylamide] | 55
5 | 0.00665 | 0.00665 |  | 83.3 | 6.54 | 0.86 | C=CC(=O)Nc1cc(Nc2nccc(C(=O)c3cc4ccccc4n3C)n2)c(OC)cc1N(C)CCN(C)C [EGFR_3365_94, N-(2-((2-(dimethylamino)ethyl) (methyl)amino)-4-methoxy-5-((4-(1-methyl-1H-indole-2-carbonyl)pyrimidin-2-yl)amino)phenyl)acrylamide] | 1037
6 | 0.0338 | 0.0338 | 100.0 |  | 3.2 | 1.7 | C=CC(=O)Nc1cc(Nc2cc(C(=O)c3ccc(OC)cc3)ccn2)c(OC)cc1N(C)CCN(C)C [EGFR_3365_51, N-(2-((2-(dimethylamino)ethyl)(methyl)amino)-4-methoxy-5-((4-(4-methoxybenzoyl)pyridin-2-yl)amino)phenyl)acrylamide] | 340
7 | 0.0661 | 0.0661 | 100.0 |  | 3 | 1.2 | C=CC(=O)Nc1cc(Nc2cc(C(=O)c3ccc(OCC)cc3)ccn2)c(OC)cc1N(C)CCN(C)C [EGFR_3365_52, N-(2-((2-(dimethylamino)ethyl)(methyl)amino)-5-((4-(4-ethoxybenzoyl)pyridin-2-yl)amino)-4-methoxyphenyl) acrylamide] | 164
8 | 0.0079 | 0.00793 | 100.0 | 100.0 |  |  | C=CC(=O)Nc1cc(Nc2nccc(C(=O)c3ccc(OC)cc3OC)n2)c(OC)cc1N(C)CCN(C)C [EGFR_3365_69, N-(5-((4-(2,4-dimethoxybenzoyl)pyrimidin-2-yl)amino)-2-((2-(dimethylamino)ethyl)(methyl)amino)-4-methoxyphenyl)acrylamide] | >1261
9 | 0.393 | 0.394 | 98.8 | 97.0 |  |  | C=CC(=O)Nc1cc(Nc2nccc(C(=O)c3ccc(Oc4ccccc4)cc3)n2)c(OC)cc1N(C)CCN(C)C [EGFR_3365_17, N-(2-((2-(dimethylamino)ethyl)(methyl)amino)-4-methoxy-5-((4-(4-phenoxybenzoyl)pyrimidin-2-yl)amino)phenyl)acrylamide] | 6.08
10 | 0.0805 | 0.0805 |  | 82.7 | 27.5 | 1.62 | C=CC(=O)Nc1cc(Nc2nccc(C(=O)c3ccc(OC)cc3OCCC)n2)c(OC)cc1N(C)CCN(C)C [EGFR_3365_102, N-(2-((2-(dimethylamino)ethyl)(methyl)amino)-4-methoxy-5-((4-(4-methoxy-2-propoxybenzoyl)pyrimidin-2-yl)amino)phenyl)acrylamide] | 69
11 | 0.0353 | 0.0353 | 100.0 |  | 2.86 | 2 | C=CC(=O)Nc1cc(Nc2cc(C(=O)c3ccc(N(C)C)cc3)ccn2)c(OC)cc1N(C)CCN(C)C.O=C(O)C(F)(F)F [EGFR_3365_4, N-(5-((4-(4-(dimethylamino)benzoyl)pyridin-2-yl)amino)-2-((2-(dimethylamino)ethyl) (methyl)amino)-4-methoxyphenyl)acrylamide 2,2,2-trifluoroacetate] | 152.17
12 | 0.00421 | 0.00421 |  | 98.3 | 1.87 | 0.87 | C=CC(=O)Nc1cc(Nc2nccc(C(=O)c3ccc(N4CCC(N)CC4)cc3)n2)c(OC)cc1N(C)CCN(C)C [EGFR_3365_121, N-(5-((4-(4-(4-aminopiperidin-1-yl)benzoyl)pyrimidin-2-yl)amino)-2-((2-(dimethylamino)ethyl)(methyl)amino)-4-methoxyphenyl)acrylamide] | 1983
13 | 0.005 | 0.00758 |  | 98.1 | 2.2 | 1.49 | C=CC(=O)Nc1cc(Nc2nccc(C(=O)c3ccc(N4CCCCC4)cc3)n2)c(OC)cc1N(C)CCN(C)C [EGFR_3365_90, N-(2-((2-(dimethylamino)ethyl)(methyl)amino)-4-methoxy-5-((4-(4-(piperidin-1-yl)benzoyl)pyrimidin-2-yl)amino)phenyl)acrylamide] | 1060
14 | 0.0346 | 0.0346 | 98.2 | 78.4 |  |  | C=CC(=O)Nc1cc(Nc2nccc(C(=O)c3ccc(OCC)cc3OCC)n2)c(OC)cc1N(C)CCN(C)C [EGFR_3365_68, N-(5-((4-(2,4-diethoxybenzoyl)pyrimidin-2-yl)amino)-2-((2-(dimethylamino)ethyl) (methyl)amino)-4-methoxyphenyl)acrylamide] | 235

Row | Structure (SMILES) | IC50 [1, 5] [µM] | IC50 [1, 6] [µM] | Stability in SIF, % [2] [%] | Stability in blood plasma, % [3] [%] | Papp A→B at 2 h, 10 µM [4] [×10⁻⁶ cm/s] | efflux ratio at 2 h, 10 µM [4] | SI IC50(A549)/IC50(DM) [1]
15 | C=CC(=O)Nc1cc(Nc2nccc(C(=O)c3ccc(N4CCN(C)CC4)cc3)n2)c(OC)cc1N(C)CCN(C)C [EGFR_3365_62, N-(2-((2-(dimethylamino)ethyl)(methyl)amino)-4-methoxy-5-((4-(4-(4-methylpiperazin-1-yl)benzoyl)pyrimidin-2-yl)amino)phenyl)acrylamide formate] | 0.0228 | 0.0608 | 100.0 | 98.4 |  |  | 539
